Results from patent US6469141B1, “D1-like dopamine receptor activity modifying protein” (Medical College of Georgia Research Institute Inc., priority 1998, dated 2002).

Tests used:
[1] = test system: endogenous P2Y purinergic receptors; experiment: Fura-2 Ca++ imaging, P2Y receptor-stimulated Ca++i release in D1 HEK293 cells; format: cell-based, human
Protocol: Drugs were prepared in HBS and manually applied.
Changes in Ca^++i levels were measured using ratiofluorometric imaging following bath application of ligand. Application of DA or 10:M […] produced no detectable response in untransfected D1 HEK293 cells, or cells expressing either EGFP or EGFP-Calcyon. In vivo, DA is considered primarily to be a neuromodulator. Therefore, to test whether Calcyon plays a role in the D1 receptor's ability to modulate other stimuli, we applied agonists of endogenous GPCRs prior to stimulating D1 receptors. […].

protein kinase C (PKC) = experiment: 32P-orthophosphate in vivo labeling and GFP mab immunoprecipitation of EGFP-Calcyon; format: cell-based, human; details: 100 nM PMA, 0.5 h
Protocol: Approximately 40 h after transfection, pEGFP or pEGFP-Calcyon transfected D1 HEK293 cells were washed and placed in HBS (phosphate-free media) for 1.5 h prior to addition of [^32P] orthophosphate (135 μCi/ml). 2 h later, cells were treated with 100 nM PMA (Phorbol 12-Myristate 13-Acetate) in HBS for 0.5 h at 37°. Cells were then washed once in cold PBS and solubilized in mild lysis solution (Cytosignal, Irvine, Calif.) containing protease inhibitor cocktail (Boehringer Manheim) and phosphatase inhibitors, 50 μM NaF and 5 μM EGTA. Lysates were centrifuged for 5 min at 14,000 rpm and the supernatant was incubated at RT. for 1 h with mouse anti-GFP mab (Clontech, Palo Alto, Calif.) (diluted 1:100), followed by 0.02 volume of protein A/G agarose slurry for 30 min. The resin was washed twice with mild lysis solution, and adsorbed proteins eluted in SDS PAGE loading buffer (Laemmli, U.K., Nature 227:680-5 (1970)). Samples were analyzed by SDS-PAGE, using a 15% gel (Bio-Rad). The gel was dried and visualized using a Phosphorimager SF (Molecular Dynamics). […]
The Calcyon sequence contains two consensus protein kinase C (PKC) phosphorylation sites within its predicted cytoplasmic domain. […] GFP mab immunoprecipated a ^32P-labeled protein from pEGFP-Calcyon transfected cells with size equal to that detected by Calcyon antibodies. […]

hD1 receptors [2] = biological target: T1, hD1 receptors (Homo sapiens, UniProt P21728); experiment: cAMP assay in transfected D1 HEK293 cells; format: cell-based
T1 construct: pLXSN (Clontech) plasmid containing full-length human D1 (Zhou et al., Nature 347:76-80 (1990)); expressed in transfected cells
T1 sequence (P21728 whole entry): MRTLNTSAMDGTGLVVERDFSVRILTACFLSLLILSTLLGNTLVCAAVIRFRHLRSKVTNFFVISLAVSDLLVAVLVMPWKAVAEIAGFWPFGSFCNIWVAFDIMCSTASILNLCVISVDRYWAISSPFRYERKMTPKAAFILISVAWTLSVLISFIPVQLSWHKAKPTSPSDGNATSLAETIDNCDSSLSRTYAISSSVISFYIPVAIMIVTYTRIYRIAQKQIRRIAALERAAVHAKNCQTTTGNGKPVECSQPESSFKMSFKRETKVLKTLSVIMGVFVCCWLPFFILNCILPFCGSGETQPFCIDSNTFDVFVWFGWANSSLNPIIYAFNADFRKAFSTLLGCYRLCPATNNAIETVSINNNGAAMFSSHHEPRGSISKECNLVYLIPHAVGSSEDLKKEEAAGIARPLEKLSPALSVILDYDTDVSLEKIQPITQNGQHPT
Protocol: Following centrifugation to pellet proteins, cAMP levels in supernatant were determined by Direct cAMP Enzyme Immunoassay Kit (Assay Designs, Inc.) according to the supplier's protocol. […] Results (pmol cAMP/mg protein) are reported as average of three independent trans fection experiments.
It was determined whether Calcyon influenced D1 receptor coupling to the cAMP second messenger system in D1 HEK293 cells transfcctcd with expression plasmids encoding either enhanced green fluorescent protein (EGFP), or Calcyon tagged at its N-terminus by EGFP.
(§1) pEGFP-Calcyon was created by inserting a 0.9 kb Eco RI-Xho I fragment encoding full-length Calcyon into pEGFP-C3 (Clontech). pEGFP-C3 and pEGFP-Calcyon plasmid DNAs were transiently transfected into HEK293 and D1 HEK293 cell lines using Effectene™ (Qiagen) according to manufacturer's recommendations. 2.5×10^5 cells were seeded in 6-well plates, and transfected with 0.4:g plasmid DNA/well for Ca^++ imaging, cAMP, and immunoprecipitation assays.

hD1 receptors [3] = biological target: T1, hD1 receptors; experiment: Fura-2 Ca++ imaging of D1 receptor-stimulated Ca++i release in D1 HEK293 cells; format: cell-based; details: for effect of PKC inhibitor on SKF81297-induced Ca++ mobilization: EGFP-Calcyon expressing D1 HEK293 cells, HCl
Protocol: For Ca^++ imaging, cells were rinsed with HBS (150 mM NaCl, 10 mM NaHEPES, 10 mM glucose, 2.5 mM KCI, 4 mM CaCl2 and 2 mM MgCl2, pH 7.4) and then loaded with 5 μM Fura-2 AM (Molecular Probes) in HBS at RT. After 20 min, cells were washed three times with HBS. Assays were performed at RT in 1.5 ml of HBS. Drugs were prepared in HBS and manually applied. […] Images were collected with a CCD camera connected to a Silicon Graphics workstation, and analyzed with Inovision-Ratiotool 4.3.5. Transfected cells were identified by illumination at 490 nm, and selected as areas for analysis. […] Fluorescence emission at 510 nm was monitored for each excitation wavelength via the CCD camera at 10 s intervals. Average pixel intensities within 6-8 selected areas (each area corresponded to single transfected cell) for both wavelengths at each time point were digitized and stored on the computer.
Changes in Ca^++i levels were measured using ratiofluorometric imaging following bath application of ligand. […] In vivo, DA is considered primarily to be a neuromodulator. Therefore, to test whether Calcyon plays a role in the D1 receptor's ability to modulate other stimuli, we applied agonists of endogenous GPCRs prior to stimulating D1 receptors.
as §1

[4] = biological target: T2, GSTD1 (C-terminal 81 residues of hD1 receptor) (Homo sapiens, UniProt P21728); experiment: S-agarose pull-down assay with GSTD1 fusion protein; format: binding; details: immunoblot with D1 receptor antibodies
T2 construct: C-terminal 81 amino acids of the hD1 receptor (residues 365-446); made in house; host or cells: S-Calcyon: BL21(DE3) E. coli
T2 sequence (P21728 365-446): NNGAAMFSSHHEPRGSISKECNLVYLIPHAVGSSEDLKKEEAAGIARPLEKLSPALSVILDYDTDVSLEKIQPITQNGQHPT
T2 sequence (Q9NYX4 93-217 partner): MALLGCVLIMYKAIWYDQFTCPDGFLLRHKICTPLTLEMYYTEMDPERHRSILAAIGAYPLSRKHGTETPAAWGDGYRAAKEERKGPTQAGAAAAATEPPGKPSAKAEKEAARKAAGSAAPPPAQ
Text: For pull-down assays, a 550 bp Nco I-Bgl II fragment from pACT-Calcyon was subcloned into pET30a (Novagen, Madison, Wis.) to produce the S-Calcyon fusion protein containing residues 93-217 of the predicted Calcyon protein as well as an N-terminal tag composed of the 15 residue S peptide of ribonuclease S (Richards, F. M., et al., The Enzymes. ed.: Boyer, P. D., Academic Press, N.Y., pp. 647-806 (1971)). The S-β-galactosidase fusion protein was composed of bacterial β-galactosidase protein tagged at its N-terminus with the S peptide. Fusion proteins were induced in BL2I(DE3) E. coli with IPTG, and coupled to S-agarose resin (Novagen, Madison, Wis.) by incubating soluble fractions of bacterial lysates with resin for 1 h at RT Following incubation, unbound proteins were eliminated by washing the resin three times in 50 volumes of 25 mM HEPES (pH 7.4), 50 mM NaCl. Interaction assays were performed with GSTD1 purified as described (Bergson, C., et al., J. Neurosci. 15:7821-36 (1995)) or solubilized lysates of D1 HEK293 cells in 25 mM HEPES (pH 7.4), 50 mM NaCl, 10% glycerol, 1% bovine serum albumin containing 0.5% NP-40. Peptidel 421-435 ([…]) (SEQ ID No. 3) and Peptide2 ([…]) (SEQ ID No. 4) were synthesized using an Applied Biosystems 430A Peptide Synthesizer using the FastMoc procedures and reagents supplied by Perkin-Elmer, Applied Biosystems division. […]

D1 receptor = D1 receptor (Homo sapiens, UniProt P21728); experiment: D1 receptor response to dopamine in presence of P24; details: effect of P24
D1 receptor, sequence (P21728 whole entry): as the sequence (P21728 whole entry) above

D1 DA receptors = biological target: T3, D1 DA receptors (Homo sapiens, UniProt P21728); experiment: co-immunoprecipitation with GFP mab from transfected D1-HEK293 cells; format: binding
T3 construct: pLXSN (Clontech) plasmid containing full-length human D1 (Zhou et al., Nature 347:76-80 (1990)); expressed in transfected cells; host or cells: D1-HEK293 cells, transiently transfected with pEGFP-P24
T3 sequence (P21728 whole entry): as the sequence (P21728 whole entry) above
Text: A series of experiments were then undertaken to functionally characterize the interaction between P24 and D1 receptor proteins. D1-HEK293 cells, a HEK293 cell line that expresses hD1 receptors, and pEGFP-P24 expression plasmid were used for these studies. pEGFP-P24 encodes P24 protein tagged at its N-terminus by enhanced green fluorescent protein (EGFP). The N-terminal EGFP tag allowed testing to determine whether P24 directly associates with D1 DA receptors when coexpressed in mammalian cells in a “pull-down” assay. D1 receptors co-immunoprecipitated with EGFP-P24 fusion protein transiently expressed in transfected D1-HEK293 cells, and were “pulled down” by GFP mab.

Nc1ncnc2c1ncn2[C@@H]1O[C@H](COP(=O)(O)OP(=O)(O)OP(=O)(O)O)[C@@H](O)[C@H]1O [ATP]
Ca++i response ([1]; D1 HEK293 cells): produced a rise in Ca^++i
duration of P2Y receptor Ca++i response ([1]; EGFP expressing cells): 300 to 400 s
duration of P2Y receptor Ca++i response ([1]; EGFP-Calcyon expressing cells, following application of BisI): 300 to 400 s

CCCCCCCCCCCCCC(=O)O[C@@H]1[C@@H](C)[C@@]2(O)[C@@H](C=C(CO)C[C@]3(O)C(=O)C(C)=C[C@@H]23)[C@@H]2C(C)(C)[C@]12OC(C)=O [PMA, phorbol 12-myristate 13-acetate]
32P label incorporated into immunoprecipitated EGFP-Calcyon, treated vs untreated cells (protein kinase C (PKC)): approximately five times more label incorporated

CN(C)CCCn1cc(C2=C(c3c[nH]c4ccccc34)C(=O)NC2=O)c2ccccc21.Cl [bisindolylmaleimide I HCl]
cAMP levels stimulated by ATP and SKF81297, BisI-treated compared to untreated cells (hD1 receptors [2]): similar
effect of PKC inhibitor on SKF81297-induced Ca++ mobilization (hD1 receptors [3]): considerably attenuated
effect of PKC inhibitor on SKF81297-induced Ca++ mobilization (hD1 receptors [3]; listed as bisindolylmalemide): inhibits Calcyon-enabled D1 stimulated Cai^++ release
effect of PKC inhibitor on D1 receptor-stimulated Ca++i release (hD1 receptors [3]; EGFP-Calcyon expressing cells treated with carbachol): reduced D1 receptor-stimulated Ca^++i release

SVILDYDTDVSLEKI (listed as Homo sapiens) [Pep421-435]
block of interaction between GSTD1 and S-Calcyon by peptide [4]: prevented detection of the immunoreactive GSTD1 band

B1: Calcyon: 217 residue single transmembrane protein encoded by K 37 cDNA (SEQ ID No. 1) that interacts with the hD1 DA receptor (protein)
chain: MVKLGCSFSGKPGKDPGDQDGAAMDSVPLISPLDISQLQPPLPDQVVIKTQTEYQLSSPDQQNFPDLEGQRLNCSHPEEGRRLPTARMIAFAMALLGCVLIMYKAIWYDQFTCPDGFLLRHKICTPLTLEMYYTEMDPERHRSILAAIGAYPLSRKHGTETPAAWGDGYRAAKEERKGPTQAGAAAAATEPPGKPSAKAEKEAARKAAGSAAPPPAQ
modifications: D1-Like dopamine receptor activity modifying protein
threshold of D1 receptor response to dopamine (D1 receptor): lowers the threshold of D1 receptor response to dopamine (DA) by an order of magnitude
effect of Calcyon expression on D1 receptor-stimulated cAMP (hD1 receptors [2]; DA-stimulated cAMP, EGFP vs EGFP-Calcyon cells): does not alter D1 receptor activation of cAMP-dependent signaling pathways
effect of Calcyon expression on D1 receptor-stimulated Ca++i mobilization (hD1 receptors [3]; EGFP-Calcyon vs EGFP expressing cells, D1 agonist after ATP): enhance the ability of D1 receptors to mobilize Ca^++i

B2: EGFP-P24: P24 protein tagged at its N-terminus by enhanced green fluorescent protein (protein)
chain: MVKLGCSFSGKPGKDPGDQDGAAMDSVPLISPLDISQLQPPLPDQVVIKTQTEYQLSSPDQQNFPDLEGQRLNCSHPEEGRRLPTARMIAFAMALLGCVLIMYKAIWYDQFTCPDGFLLRHKICTPLTLEMYYTEMDPERHRSILAAIGAYPLSRKHGTETPAAWGDGYRAAKEERKGPTQAGAAAAATEPPGKPSAKAEKEAARKAAGSAAPPPAQ
modifications: left off: large carriers
co-immunoprecipitation of D1 receptors (D1 DA receptors): co-immunoprecipitated
